Entries after “also recorded” stand apart in the source; their conditions may differ.
Experiments:
[1] = molecular target: T1, 5ht6 (Homo sapiens, UniProt P50406); assay: PDSP receptor binding, 5ht6; conditions: PDSP primary screen at 10 µM
T1 construct: purchased NIMH PDSP (Psychoactive Drug Screening Program, Roth lab, Case Western Reserve)

[2] = molecular target: T2, D3 (Homo sapiens, UniProt P35462); assay: PDSP receptor binding, D3; conditions: PDSP primary screen at 10 µM
T2 construct: purchased NIMH PDSP (Psychoactive Drug Screening Program, Roth lab, Case Western Reserve)

[3] = molecular target: T3, α1A (Homo sapiens, UniProt P35348); assay: PDSP receptor binding, α1A; conditions: PDSP primary screen at 10 µM
T3 construct: purchased NIMH PDSP (Psychoactive Drug Screening Program, Roth lab, Case Western Reserve)

[4] = molecular target: T4, D5 (Homo sapiens, UniProt P21918); assay: PDSP receptor binding, D5; conditions: PDSP primary screen at 10 µM
T4 construct: purchased NIMH PDSP (Psychoactive Drug Screening Program, Roth lab, Case Western Reserve)

[5] = molecular target: T5, M4 (Homo sapiens, UniProt P08173); assay: PDSP receptor binding, M4; conditions: PDSP primary screen at 10 µM
T5 construct: purchased NIMH PDSP (Psychoactive Drug Screening Program, Roth lab, Case Western Reserve)

[6] = molecular target: T6, 5ht5a (Homo sapiens, UniProt P47898); assay: PDSP receptor binding, 5ht5a; conditions: PDSP primary screen at 10 µM
T6 construct: purchased NIMH PDSP (Psychoactive Drug Screening Program, Roth lab, Case Western Reserve)

[7] = molecular target: α3β3γ2 GABAA/BzR (Homo sapiens, UniProt P18507+P34903); assay: Competition binding to HEK cell membranes, α3β3γ2; design: expressed in transfected cells; conditions: Figure 5; read-out: Ki α3
[8] = molecular target: KOR (Homo sapiens, UniProt P41145); assay: PDSP receptor binding, KOR; conditions: Case Western Reserve University, read-out: KOR Ki (secondary binding)
[9] = test system: σ2; assay: PDSP receptor binding, σ2; conditions: PDSP primary screen at 10 µM
[10] = molecular target: T7, 5ht2c (Homo sapiens, UniProt P28335); assay: PDSP receptor binding, 5ht2c; conditions: PDSP primary screen at 10 µM
T7 construct: purchased NIMH PDSP (Psychoactive Drug Screening Program, Roth lab, Case Western Reserve)

[11] = molecular target: T8, H2 (Homo sapiens, UniProt P25021); assay: PDSP receptor binding, H2; conditions: PDSP primary screen at 10 µM
T8 construct: purchased NIMH PDSP (Psychoactive Drug Screening Program, Roth lab, Case Western Reserve)

[12] = molecular target: T9, M5 (Homo sapiens, UniProt P08912); assay: PDSP receptor binding, M5; conditions: PDSP primary screen at 10 µM
T9 construct: purchased NIMH PDSP (Psychoactive Drug Screening Program, Roth lab, Case Western Reserve)

[13] = molecular target: T10, 5ht1e (Homo sapiens, UniProt P28566); assay: PDSP receptor binding, 5ht1e; conditions: PDSP primary screen at 10 µM
T10 construct: purchased NIMH PDSP (Psychoactive Drug Screening Program, Roth lab, Case Western Reserve)

[14] = molecular target: T11, MOR (Homo sapiens, UniProt P35372); assay: PDSP receptor binding, MOR; conditions: PDSP primary screen at 10 µM
T11 construct: purchased NIMH PDSP (Psychoactive Drug Screening Program, Roth lab, Case Western Reserve)

[15] = molecular target: T12, 5ht1b (Homo sapiens, UniProt P28222); assay: PDSP receptor binding, 5ht1b; conditions: PDSP primary screen at 10 µM
T12 construct: purchased NIMH PDSP (Psychoactive Drug Screening Program, Roth lab, Case Western Reserve)

[16] = molecular target: α2β3γ2 GABAA/BzR (Homo sapiens, UniProt P18507+P47869); assay: Competition binding to HEK cell membranes, α2β3γ2; design: expressed in transfected cells; conditions: Figure 5; read-out: Ki α2
[17] = molecular target: T13, M3 (Homo sapiens, UniProt P20309); assay: PDSP receptor binding, M3; conditions: PDSP primary screen at 10 µM
T13 construct: purchased NIMH PDSP (Psychoactive Drug Screening Program, Roth lab, Case Western Reserve)

[18] = molecular target: T14, H4 (Homo sapiens, UniProt Q9H3N8); assay: PDSP receptor binding, H4; conditions: PDSP primary screen at 10 µM
T14 construct: purchased NIMH PDSP (Psychoactive Drug Screening Program, Roth lab, Case Western Reserve)

[19] = molecular target: T15, 5ht2a (Homo sapiens, UniProt P28223); assay: PDSP receptor binding, 5ht2a; conditions: PDSP primary screen at 10 µM
T15 construct: purchased NIMH PDSP (Psychoactive Drug Screening Program, Roth lab, Case Western Reserve)

[20] = molecular target: T16, α5β3γ2 GABAA receptor (Homo sapiens, UniProt P18507+P31644); assay: Oocyte electrophysiology, α5β3γ2; format: cell-based
T16 construct: expressed in transfected cells; host or cells: Xenopus oocytes

[21] = molecular target: T17, Beta1 (Homo sapiens, UniProt P08588); assay: PDSP receptor binding, Beta1; conditions: PDSP primary screen at 10 µM
T17 construct: purchased NIMH PDSP (Psychoactive Drug Screening Program, Roth lab, Case Western Reserve)

[22] = test system: mice; design: method as in earlier work; conditions: cited from earlier work
[23] = molecular target: T18, α2C (Homo sapiens, UniProt P18825); assay: PDSP receptor binding, α2C; conditions: PDSP primary screen at 10 µM
T18 construct: purchased NIMH PDSP (Psychoactive Drug Screening Program, Roth lab, Case Western Reserve)

[24] = molecular target: T19, 5ht1d (Homo sapiens, UniProt P28221); assay: PDSP receptor binding, 5ht1d; conditions: PDSP primary screen at 10 µM
T19 construct: purchased NIMH PDSP (Psychoactive Drug Screening Program, Roth lab, Case Western Reserve)

[25] = molecular target: T20, D2 (Homo sapiens, UniProt P14416); assay: PDSP receptor binding, D2; conditions: PDSP primary screen at 10 µM
T20 construct: purchased NIMH PDSP (Psychoactive Drug Screening Program, Roth lab, Case Western Reserve)

[26] = molecular target: T21, D4 (Homo sapiens, UniProt P21917); assay: PDSP receptor binding, D4; conditions: PDSP primary screen at 10 µM
T21 construct: purchased NIMH PDSP (Psychoactive Drug Screening Program, Roth lab, Case Western Reserve)

[27] = molecular target: T22, DAT (Homo sapiens, UniProt Q01959); assay: PDSP receptor binding, DAT; conditions: PDSP primary screen at 10 µM
T22 construct: purchased NIMH PDSP (Psychoactive Drug Screening Program, Roth lab, Case Western Reserve)

[28] = molecular target: T23, CB1 (Homo sapiens, UniProt P21554); assay: PDSP receptor binding, CB1; conditions: PDSP primary screen at 10 µM
T23 construct: purchased NIMH PDSP (Psychoactive Drug Screening Program, Roth lab, Case Western Reserve)

In the case of `CCc1ccc2c(c1)C(=O)N(C)Cc1c(C(=O)OCCCOC(=O)c3ncn4c3CN(C)C(=O)c3cc(CC)ccc3-4)ncn1-2` [XLi-356 (10), 1,3-Bis(8-ethyl-5,6-dihydro-5-methyl-6-oxo-4H-imidazo[1,5a][1,4]benzodiazepine-3-carboxy) propyl diester], the 5ht6 binding [1] is reported as “∗ (“∗” indicates “primary missed” (<50% inhibition at 10 µM))”, the D3 binding [2] is reported as “∗ (“∗” indicates “primary missed” (<50% inhibition at 10 µM))” and the α1A binding [3] is reported as “∗ (“∗” indicates “primary missed” (<50% inhibition at 10 µM))”. For the same compound, the D5 binding [4] was “∗ (“∗” indicates “primary missed” (<50% inhibition at 10 µM))”, the M4 binding [5] was “∗ (“∗” indicates “primary missed” (<50% inhibition at 10 µM))” and the 5ht5a binding [6] was “∗ (“∗” indicates “primary missed” (<50% inhibition at 10 µM))”. For the same compound, the Ki [7] was 8.55 µM, the Ki [8] was 6.12 µM and the σ2 binding [9] was “∗ (“∗” indicates “primary missed” (<50% inhibition at 10 µM))”. The 5ht2c binding [10] was “∗ (“∗” indicates “primary missed” (<50% inhibition at 10 µM))”, the H2 binding [11] was “∗ (“∗” indicates “primary missed” (<50% inhibition at 10 µM))” and the M5 binding [12] was “∗ (“∗” indicates “primary missed” (<50% inhibition at 10 µM))”. The 5ht1e binding [13] was “∗ (“∗” indicates “primary missed” (<50% inhibition at 10 µM))”, the MOR binding [14] was “∗ (“∗” indicates “primary missed” (<50% inhibition at 10 µM))” and the 5ht1b binding [15] was “∗ (“∗” indicates “primary missed” (<50% inhibition at 10 µM))”. The Ki [16] was 4.2 µM, the M3 binding [17] was “∗ (“∗” indicates “primary missed” (<50% inhibition at 10 µM))” and the H4 binding [18] was “∗ (“∗” indicates “primary missed” (<50% inhibition at 10 µM))”. The 5ht2a binding [19] was “∗ (“∗” indicates “primary missed” (<50% inhibition at 10 µM))”, the “efficacy type at the α5 subtype” value [20] was “weak agonist-antagonist” and the Beta1 binding [21] was “∗ (“∗” indicates “primary missed” (<50% inhibition at 10 µM))”. For the same compound, the “audio cued fear conditioning” value [22] was “no activity; also recorded: not able to reverse”, the α2C binding [23] was “∗ (“∗” indicates “primary missed” (<50% inhibition at 10 µM))” and the 5ht1d binding [24] was “∗ (“∗” indicates “primary missed” (<50% inhibition at 10 µM))”. For the same compound, the D2 binding [25] was “∗ (“∗” indicates “primary missed” (<50% inhibition at 10 µM))”, the D4 binding [26] was “∗ (“∗” indicates “primary missed” (<50% inhibition at 10 µM))” and the DAT binding [27] was “∗ (“∗” indicates “primary missed” (<50% inhibition at 10 µM))”. For the same compound, the CB1 binding [28] was “∗ (“∗” indicates “primary missed” (<50% inhibition at 10 µM))”.

From PMC4657098, “A Review of the Updated Pharmacophore for the Alpha 5 GABA(A) Benzodiazepine Receptor Model” (International Journal of Medicinal Chemistry, 2015)
